Source: PubChem BioAssay (NCI)
Values joined by “and” are separate entries in the source; they are usually repeats but may differ in a detail not shown here. Equal entries are not always repeated.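 Growth conditions: 96-well plates. Treatment: test compound, 48 hours, 5 concentrations. Analysis: linear interpolation between bracketing concentrations; unreached endpoints set to highest concentration. Abbreviation: GI50, concentration required for 50% inhibition of growth. Definition used: TGI = concentration required for complete inhibition of growth.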

Experiments:
Experiment in all cases: NCI anticancer screen, dose series, 48 h
[1] = system: NCI/ADR-RES ovarian
[2] = system: MCF7 breast
[3] = system: MDA-N
[4] = system: LXFL 529 NSCLC
[5] = system: DMS 114 small cell lung
[6] = system: SNB-78 CNS

Compound	GI50 [1]	TGI [1]	GI50 [2]	TGI [2]	TGI [3]	TGI [4]	TGI [5]	TGI [6]	GI50 [3]
COc1ccc(C2SC(C)C(=O)N2NC(=O)C(O)c2ccccc2)cc1OC (stereo not drawn)	> 100 µM	> 100 µM	> 100 µM	> 100 µM	–	–	–	–	–
O=C(Nc1cccc(NC(=O)Nc2cc(C(F)(F)F)ccc2Cl)c1)Nc1cc(C(F)(F)F)ccc1Cl	3.01 µM	17.7 µM	0.516 µM	32.9 µM	–	–	–	–	–
COc1ccc(OC)c(-c2c(C#N)c(N)nc(N3CCOCC3)c2C#N)c1	> 100 µM	> 100 µM	> 100 µM	> 100 µM	–	–	–	–	–
O=c1nc2oc3ccc4ccccc4c3cc-2s1	> 100 µM	> 100 µM	0.485 µM	> 100 µM	–	–	–	–	–
C=C1C(=O)OC2/C=C(/C)C(OC(C)=O)CC(O)/C(C)=C\C(OC(=O)/C(C)=C\C)C12 (stereo not drawn)	–	> 100 µM	–	> 100 µM	> 100 µM	–	–	–	–
Cc1ccc(N2C(=O)C3C=CC(n4[nH]c(=O)n(Cc5ccccc5)c4=O)CC3C2=O)cc1 (stereo not drawn)	–	–	–	–	–	> 100 µM	> 100 µM	> 100 µM	–
CS[C@]12C(=O)C[C@@]3(C)[C@@H](CC[C@]3(O)C(=O)CO)[C@@H]1CCC1=CC(=O)CC[C@@]12C	–	> 100 µM	–	> 100 µM	69.4 µM	–	–	–	–
C[C@]12CC[C@H]3[C@@H](CC[C@]4(O)C[C@@H](O)CC[C@]34/C=N/O)[C@@]1(O)CC[C@@H]2C1=COC(=O)C1	–	0.604 µM	–	–	1.03 µM	–	–	–	–
O=S1(=O)OCCOS(=O)(=O)C1Cc1ccccc1	–	–	–	–	–	–	> 100 µM	> 100 µM	–
COC(=O)C1=C(c2cc(OC)c(OC)c(OC)c2)OC(c2ccc(OC)c(OC)c2)C1 (stereo not drawn)	–	–	–	–	–	> 100 µM	81.3 µM	–	–
CC(=O)C1C(=O)C(=O)N(c2ccccc2C(C)C)C1=O (stereo not drawn)	–	–	–	–	–	> 100 µM	–	> 100 µM	–
COc1ccc(OC)c2c1C(=O)C1CC1(Br)C2=O (stereo not drawn)	–	–	–	–	–	> 100 µM	> 100 µM	–	–
COC(=O)C1=CC2C(=O)OC1CC2C#N (stereo not drawn)	–	–	–	–	–	> 100 µM	> 100 µM	> 100 µM	–
O=C1c2ccccc2-c2c1c1ccccc1c(=O)n2CCN1CCOCC1	> 100 µM	> 100 µM	43.7 µM	> 100 µM	–	–	–	–	–
C/C=C(\C)C(=O)O[C@H]1C=CC(=O)O[C@@H]1CC[C@H](O)[C@H](C)O	> 100 µM	> 100 µM	32.6 µM	> 100 µM	–	–	–	–	–
COc1cc([C@H]2OC[C@H]3[C@@H]2CO[C@@H]3c2cc(OC)c3c(c2)OCO3)cc(OC)c1OC	–	> 100 µM	–	> 100 µM	> 100 µM	–	–	–	–
Nc1nc(Nc2ccc(C3CCC(N4CCOCC4)CC3)cc2)nn1-c1ccccn1 (stereo not drawn)	9.33 µM	> 100 µM	3.23 µM	35.3 µM	–	–	–	–	–
O=[N+]([O-])c1cccc([As]=[As]c2cccc([N+](=O)[O-])c2)c1 (stereo not drawn)	0.182 µM	0.447 µM	0.0327 µM	0.137 µM	–	–	–	–	–
O=C(/C=C/c1ccc([N+](=O)[O-])cc1)c1ccc2c3c(cccc13)CC2	20.8 µM	> 100 µM	2.7 µM	> 25.4 µM	–	–	–	–	–

Compound	GI50 [1]	TGI [1]	GI50 [2]	TGI [2]	TGI [3]	TGI [4]	TGI [5]	TGI [6]	GI50 [3]
Cn1cc(C2=C(c3cccc(OCC(O)CO)c3)C(=O)NC2=O)c2ccccc21 (stereo not drawn)	> 25 µM	> 25 µM	> 25 µM	> 25 µM	–	–	–	–	–
O=C(Nc1ccc(Cl)cc1)Nc1ccc(Nc2nncc3ccccc23)cc1	2.79 µM	26.3 µM	1.43 µM	8.33 µM	–	–	–	–	–
CC[C@H](CO)Nc1nc(NCc2ccccc2)n2ncc(C(C)C)c2n1	2.08 µM	15.7 µM	0.592 µM	7.99 µM	–	–	–	–	–
C[CH2][Sn]([CH2]C)([O]C(=O)C(OC(C)=O)c1ccccc1)[O]C(=O)C(OC(C)=O)c1ccccc1 (stereo not drawn)	> 100 µM	> 100 µM	14.6 µM	27.8 µM	> 100 µM	–	–	–	50 µM
C1CN(SSN2CCOCC2)CCO1	35.3 µM	> 100 µM	23.3 µM	64.4 µM	–	–	–	–	–
COc1ccc2c(c1)C(=O)c1c-2c(N(C)C)nc2ccccc12	> 100 µM	> 100 µM	> 100 µM	> 100 µM	–	–	–	–	–
CC1=C(CO)C(=O)O[C@@H]([C@@H](C)[C@H]2CC[C@H]3[C@@H]4C[C@@H](O)[C@@]5(O)CC=CC(=O)[C@]5(C)[C@H]4CC[C@]23C)C1	–	64.2 µM	–	> 100 µM	> 100 µM	–	–	–	–
CCCCN(CCCC)c1ccc(C(=N)c2ccc(N(CCCC)CCCC)cc2)cc1	0.479 µM	1.67 µM	0.389 µM	1.44 µM	–	–	–	–	–
CCN(CC)Cc1ccc(Nc2nccc(-c3cnn4ncccc34)n2)cc1	0.032 µM	> 25 µM	0.017 µM	14.8 µM	–	–	–	–	–
O=C1c2c(O)cccc2C(C2OC(CO)C(O)C(O)C2O)c2cc(CO)cc(O)c21 (stereo not drawn)	–	> 100 µM	–	> 100 µM	> 100 µM	–	–	–	–
CCSCCCN(CCCSCC)CCCSCC	–	> 100 µM	–	> 100 µM	> 100 µM	–	–	–	–
C=C1C(=O)OC2C1C(OC(=O)/C(C)=C/C)CC(O)(CCl)C1C(O)C3OC3(C)C21O (stereo not drawn)	–	> 50 µM	–	> 50 µM	> 50 µM	–	–	–	–
CCc1ccc(NC(=O)COC(=O)c2cc([N+](=O)[O-])ccc2Sc2nnnn2C)cc1	5.66 µM	47.2 µM	20.1 µM	60.6 µM	–	–	–	–	–
NC(=O)c1c(NC(=O)c2ccc3c(c2)OCO3)sc2c1CCC(=O)C2	2.2 µM	> 100 µM	1.96 µM	> 100 µM	–	–	–	–	–
C1=C2/CC[C@H](Sc3ccccc3)[C@H]2C2(CCCCC/1)OCCO2	–	–	–	–	–	> 100 µM	–	> 100 µM	–
C/C=C(/COC(C)=O)C(=O)OC1C=C(C=O)C(C)(C)C=C1C (stereo not drawn)	–	> 100 µM	–	> 100 µM	> 100 µM	–	–	–	–
Cc1ccc(CNc2c3ccccc3nc3cc(NC(=O)CCN4CCCC4)ccc23)cc1	4.02 µM	24.2 µM	0.453 µM	1.77 µM	–	–	–	–	–
CCCOC(=O)N1CCN(/[N+]([O-])=N/Oc2ccc([N+](=O)[O-])cc2[N+](=O)[O-])CC1	3.31 µM	> 100 µM	0.446 µM	2.23 µM	–	–	–	–	–
CCOc1cc2ncc(C#N)c(Nc3ccc(OCc4ccccn4)c(Cl)c3)c2cc1NC(=O)/C=C/CN(C)C	1.17 µM and 1.2 µM	4.49 µM and > 8.87 µM	1.65 µM and 0.927 µM	3.22 µM and > 6 µM	–	–	–	–	–

Compound	GI50 [1]	TGI [1]	GI50 [2]	TGI [2]	TGI [3]	TGI [4]	TGI [5]	TGI [6]	GI50 [3]
Cc1c2c(nn1C)CSCc1cc(n(C)n1)CSc1cc(c3ccccc3c1)OCCCc1c(C(=O)O)n(C)c3c-2c(Cl)ccc13	14.2 µM	30 µM	0.575 µM	11.3 µM	–	–	–	–	–
NC(=S)N/N=C/c1ncccc1N	1.66 µM	14.9 µM and 8.77 µM	0.32 µM	27.2 µM and > 10 µM	> 10 µM	–	–	–	–
O=C(c1ccccc1)c1cccc(C(=O)c2ccccc2)c1	–	–	–	–	–	> 100 µM	> 100 µM	> 100 µM	–
CN(/N=C/c1cccc2cccnc12)c1ccccc1	–	–	–	–	–	> 100 µM	> 100 µM	> 100 µM	–
Cc1ccc(S(=O)(=O)Nc2cccc3[nH]c(C(F)(F)F)nc23)cc1	0.412 µM	42.9 µM	0.389 µM	> 54.5 µM	–	–	–	–	–
O=C1CC(S(=O)(=O)O)C=C1Nc1cccc(Cl)c1 (stereo not drawn)	–	–	–	–	–	> 100 µM	–	> 100 µM	–
C=C1c2[nH]c3c([N+](=O)[O-])c(OC)ccc3c2CCN1C(C)=O	–	–	–	–	–	> 100 µM	> 100 µM	> 100 µM	–
CN1CC[C@@H](c2c(O)cc(O)c3c(=O)cc(-c4ccccc4Cl)oc23)[C@@H]1CO	1.57 µM	> 10 µM	0.241 µM	> 10 µM	–	–	–	–	–
O=CC1CCCc2ccccc21 (stereo not drawn)	–	–	–	–	–	> 100 µM	> 71.4 µM	> 100 µM	–
O=C(NN1C(=O)CSC12CCCC2)c1[nH]c2ccc(Br)cc2c1-c1ccccc1	–	–	37.2 µM	> 100 µM	–	–	–	–	–
Nc1[nH]nc2nc(-c3cccs3)cc(C(F)(F)F)c12	> 25 µM	> 25 µM	> 15.8 µM	> 25 µM	–	–	–	–	–
COc1cccc(-n2ncc3c(N/N=C/c4ccncc4)ncnc32)c1	> 25 µM	> 25 µM	> 12.2 µM	> 25 µM	–	–	–	–	–
Cc1ccc(C)c(NC(=O)CC/C(=N\NC(=O)c2c(O)ccc3ccccc23)C(C)C(=O)c2ccc(O)cc2)c1 (stereo not drawn)	–	–	–	–	–	> 100 µM	–	> 100 µM	–
COc1cc(C2C(Cl)C(=O)N2NC(=O)c2ccc(N)cc2)ccc1O (stereo not drawn)	–	–	–	–	–	30.8 µM	–	> 100 µM	–
O=C(Nc1ccc(Cl)c(Cl)c1)O/N=C\c1c(Cl)ccc([N+](=O)[O-])c1Cl	4.33 µM	17.2 µM	0.404 µM	2 µM	–	–	–	–	–
COc1cc(C(=O)NC2CCN(C)CC2)c(F)cc1Nc1ncc2c(n1)N(C1CCCC1)CC(F)(F)C(=O)N2C	< 0.0329 µM	13.6 µM	< 0.01 µM	11.9 µM	–	–	–	–	–
CC(C)(O)CC(=O)NCCn1ccc2ncnc(Nc3ccc(Oc4cccc(C(F)(F)F)c4)c(Cl)c3)c21	2.58 µM	> 10 µM	2.98 µM	> 10 µM	–	–	–	–	–
Clc1nc(Cl)c2ncn(C/C=C/COc3cccc(OC/C=C/Cn4cnc5c(Cl)nc(Cl)nc54)c3)c2n1	> 100 µM	> 100 µM	73.5 µM	> 100 µM	–	–	–	–	–
